Measurements from patent US7442703B2, “Piperidine derivatives useful as CCR5 antagonists” (priority 2001, dated 2008).

test system: HIV-1 luciferase reporter virus in U87-CD4-CCR5 cells; assay: HIV Replication (luciferase) assay; type: cell-based; details: Human immunodeficiency virus 1, U87/CD4/CCR5, read-out: HIV Replication (luciferase) IC50
Protocol: Luciferase Replication Assay:
Plasmids encoding the full length genome of HIV-1 pNL-4-Luc with the gp120 V-3 loop replaced by the Bgl II fragment of HIV-1 ADA, YU-2 or HxB (ADA-Luc-FL, YU-2-Luc-FL and HxB-Luc-FL) are obtained from Dr. Susan Pontow (Washington University, St. Louis Mo.). Replication-competent luciferase reporter virus stocks are generated by transfection of plasmids into 293T cells using Superfect (Qiagen) or Mirus transfection reagents. Viral stocks are collected 48 hours following transfection and titered for luciferase production on U-87-CCR5 or CXCR4 cells. U87-CD4-CCR5 cells (10^4/well) are plated in 96-well cell culture plates and incubated overnight. Media is removed and replaced with 50 μl of fresh culture media (DMEM, 10% FCS) and 50 μl of compound diluted in culture medium. Cells are incubated with compound at 37° C. for 1 hour. The resultant supernatant is removed and replaced with 20 μl of media containing compound and infected with an equal volume of diluted or undiluted virus stock at 37° C. for 3-4 hours. The cells are washed once with DMEM, and 200 μl of media containing compound is added. The cultures are incubated for 3 days, the cells lysed in luciferase lysis buffer (Promega, Madison, Wis.) and transferred to Immulon plates (Dynex Technologies, Chantilly Va.). An equal volume of luciferase substrate (Promega, Madison Wis.) is added to lysates and the plates read immediately in a Wallac Luminometer. Fifty and ninety percent inhibitory concentrations are determined using GraphPad PRISM software.

| Compound | IC50 [nM] |
| --- | --- |
| Cc1ncnc(C)c1C(=O)N1CCC(C)(N2CCC(N(Cc3ccccc3)C3CCN(S(=O)(=O)c4cccc(Cl)c4)CC3)CC2)CC1 [Compound 1] | 0.1 |
| Cc1ncnc(C)c1C(=O)N1CCC(C)(N2CCC(N(Cc3ccccc3)C3CCN(S(C)(=O)=O)CC3)CC2)CC1 [Compound 2] | 0.8 |
| Cc1ncnc(C)c1C(=O)N1CCC(C)(N2CCC(N(CC3CC3)C3CCN(S(=O)(=O)c4cccc(Cl)c4)CC3)CC2)CC1 [Compound 3] | 32 |
| Cc1ncnc(C)c1C(=O)N1CCC(C)(N2CCC(N(Cc3ccccc3)C3CCN(Cc4ccccc4)CC3)CC2)CC1 [Compound 4] | 1.7 |
| Cc1ncnc(C)c1C(=O)N1CCC(C)(N2CCC(N(Cc3ccccc3)C3CCN(S(=O)(=O)c4ccccc4Cl)CC3)CC2)CC1 [Compound 5] | 2.1 |
| Cc1ncnc(C)c1C(=O)N1CCC(C)(N2CCC(N(Cc3ccccc3)C3CCN(S(=O)(=O)c4ccc(Cl)cc4)CC3)CC2)CC1 [Compound 6] | 0.9 |
| Cc1ncnc(C)c1C(=O)N1CCC(C)(N2CCC(N(Cc3ccccc3)C3CCN(S(=O)(=O)C4CC4)CC3)CC2)CC1 [Compound 7] | 3 |
| Cc1ncnc(C)c1C(=O)N1CCC(C)(N2CCC(N(Cc3ccccc3)c3ccccc3)CC2)CC1 [Compound 9] | 3 |
| Cc1ncnc(C)c1C(=O)N1CCC(C)(N2CCC(N(Cc3ccccc3)c3ccc(C(F)(F)F)cc3)CC2)CC1 [Compound 10] | 0.5 |
| Cc1ncnc(C)c1C(=O)N1CCC(C)(N2CCC(N(Cc3ccccc3)c3ccc(OC(F)(F)F)cc3)CC2)CC1 [Compound 11] | 0.2 |
| Cc1ncnc(C)c1C(=O)N1CCC(C)(N2CCC(N(Cc3ccccc3)c3ccc(Cl)cc3)CC2)CC1 [Compound 12] | 0.2 |
| Cc1ncnc(C)c1C(=O)N1CCC(C)(N2CCC(N(Cc3ccccc3)c3ccc(C(F)(F)F)nc3)CC2)CC1 [Compound 13] | 0.2 |
| Cc1ncnc(C)c1C(=O)N1CCC(C)(N2CCC(N(Cc3ccccc3)c3ccc(F)cc3)CC2)CC1 [Compound 14] | 0.1 |
| Cc1cc(-c2cc[n+]([O-])cc2)cc(C)c1C(=O)N1CCC(C)(N2CCC(N(Cc3ccccc3)c3ccc(C(F)(F)F)nc3)CC2)CC1 [Compound 16] | 0.5 |
| Cc1ncnc(C)c1C(=O)N1CCC(C)(N2CCC(N(Cc3ccccc3)c3cccc(Br)c3)CC2)CC1 [Compound 17] | 0.1 |
| Cc1ncnc(C)c1C(=O)N1CCC(C)(N2CCC(N(Cc3ccccc3)c3cccc(Cl)c3)CC2)CC1 [Compound 18] | 0.1 |
| Cc1ncnc(C)c1C(=O)N1CCC(C)(N2CCC(N(Cc3ccc(F)cc3)c3cccc(Br)c3)CC2)CC1 [Compound 19] | 0.5 |
| Cc1ncnc(C)c1C(=O)N1CCC(C)(N2CCC(N(Cc3ccccc3)c3cccc(C(F)(F)F)c3)CC2)CC1 [Compound 20] | 0.2 |
| Cc1ncnc(C)c1C(=O)N1CCC(C)(N2CCC(N(Cc3ccccc3)c3ccc(C(C)(C)C)cc3)CC2)CC1 [Compound 21] | 1 |
| Cc1ncnc(C)c1C(=O)N1CCC(C)(N2CCC(N(Cc3ccccc3)c3ccc(C(C)C)cc3)CC2)CC1 [Compound 22] | 0.2 |
| Cc1ncnc(C)c1C(=O)N1CCC(C)(N2CCC(N(Cc3ccccc3)c3ccc(I)cc3)CC2)CC1 [Compound 23] | 0.1 |
| Cc1ncnc(C)c1C(=O)N1CCC(C)(N2CCC(N(Cc3ccccc3)c3cccc(OC(F)(F)F)c3)CC2)CC1 [Compound 24] | 0.2 |
| Cc1ncnc(C)c1C(=O)N1CCC(C)(N2CCC(N(Cc3ccccc3)c3ccc(F)c(F)c3)CC2)CC1 [Compound 25] | 0.1 |
| Cc1ncnc(C)c1C(=O)N1CCC(C)(N2CCC(N(Cc3ccccc3)c3ccc(Cl)c(Cl)c3)CC2)CC1 [Compound 26] | 0.3 |
| Cc1ncnc(C)c1C(=O)N1CCC(C)(N2CCC(N(Cc3ccccc3)c3ccc(F)c(Cl)c3)CC2)CC1 [Compound 27] | 0.1 |

| Compound | IC50 [nM] |
| --- | --- |
| Cc1cc(N(Cc2ccccc2)C2CCN(C3(C)CCN(C(=O)c4c(C)ncnc4C)CC3)CC2)ccc1Br [Compound 28] | 0.22 |
| COc1ccc(N(Cc2ccccc2)C2CCN(C3(C)CCN(C(=O)c4c(C)ncnc4C)CC3)CC2)cc1Cl [Compound 29] | 0.1 |
| Cc1cc(N(c2ccccc2)C2CCN(C3(C)CCN(C(=O)c4c(C)ncnc4C)CC3)CC2)ccc1Br [Compound 30] | 0.26 |
| Cc1ncnc(C)c1C(=O)N1CCC(C)(N2CCC(N(Cc3ccccc3)c3cccc(F)c3)CC2)CC1 [Compound 31] | 0.44 |
| Cc1ncnc(C)c1C(=O)N1CCC(C)(N2CCC(N(Cc3ccccc3)c3cc(Cl)cc(Cl)c3)CC2)CC1 [Compound 32] | 1.7 |
| COc1cccc(N(Cc2ccccc2)C2CCN(C3(C)CCN(C(=O)c4c(C)ncnc4C)CC3)CC2)c1 [Compound 33] | 0.53 |
| Cc1ncnc(C)c1C(=O)N1CCC(C)(N2CCC(N(Cc3ccccc3)c3cc(C(F)(F)F)cc(C(F)(F)F)c3)CC2)CC1 [Compound 34] | 10 |
| Cc1ncnc(C)c1C(=O)N1CCC(C)(N2CCC(N(Cc3ccccc3)c3ccc(Cl)c(C(F)(F)F)c3)CC2)CC1 [Compound 35] | 2 |
| Cc1ncnc(C)c1C(=O)N1CCC(C)(N2CCC(N(Cc3ccccc3)c3cc(F)cc(F)c3)CC2)CC1 [Compound 36] | 0.1 |
| COc1ccc(N(Cc2ccccc2)C2CCN(C3(C)CCN(C(=O)c4c(C)ncnc4C)CC3)CC2)cc1 [Compound 37] | 0.1 |
| Cc1ncnc(C)c1C(=O)N1CCC(C)(N2CCC(N(Cc3ccccc3)c3ccc(Br)c(C(F)(F)F)c3)CC2)CC1 [Compound 38] | 3 |
| Cc1cccc(N(Cc2ccccc2)C2CCN(C3(C)CCN(C(=O)c4c(C)ncnc4C)CC3)CC2)c1 [Compound 39] | 0.1 |
| CCOc1ccc(N(Cc2ccccc2)C2CCN(C3(C)CCN(C(=O)c4c(C)ncnc4C)CC3)CC2)cc1 [Compound 40] | < 0.1 |
| CCc1ccc(N(Cc2ccccc2)C2CCN(C3(C)CCN(C(=O)c4c(C)ncnc4C)CC3)CC2)cc1 [Compound 41] | < 0.1 |
| Cc1ncnc(C)c1C(=O)N1CCC(C)(N2CCC(N(Cc3ccccc3)c3ccccc3F)CC2)CC1 [Compound 42] | 0.8 |
| Cc1ncnc(C)c1C(=O)N1CCC(C)(N2CCC(N(Cc3ccccc3)c3ccc(Oc4ccccc4)cc3)CC2)CC1 [Compound 43] | 2 |
| Cc1ncnc(C)c1C(=O)N1CCC(C)(N2CCC(N(Cc3ccccc3)c3cccc(C#N)c3)CC2)CC1 [Compound 44] | 0.1 |
| Cc1ncnc(C)c1C(=O)N1CCC(C)(N2CCC(N(Cc3ccccc3)c3ccc(N4CCOCC4)cc3)CC2)CC1 [Compound 45] | 0.9 |
| Cc1ncnc(C)c1C(=O)N1CCC(C)(N2CCC(N(Cc3ccccc3)c3ccn(Cc4ccccc4)n3)CC2)CC1 [Compound 46] | 2 |
| Cc1ncnc(C)c1C(=O)N1CCC(C)(N2CCC(N(Cc3ccccc3)c3ccc(CCNS(C)(=O)=O)cc3)CC2)CC1 [Compound 47] | 0.05 |
| CC(=O)NCCc1ccc(N(Cc2ccccc2)C2CCN(C3(C)CCN(C(=O)c4c(C)ncnc4C)CC3)CC2)cc1 [Compound 49] | 0.4 |
| Cc1ncnc(C)c1C(=O)N1CCC(C)(N2CCC(N(Cc3ccccc3)c3ccc(Cl)c4cccnc34)CC2)CC1 [Compound 51] | 0.32 |
| Cc1ncnc(C)c1C(=O)N1CCC(C)(N2CCC(N(Cc3ccccc3)c3ccc(Br)c4cccnc34)CC2)CC1 [Compound 52] | 1 |
| Cc1ncnc(C)c1C(=O)N1CCC(C)(N2CCC(N(Cc3ccccc3)c3cccc4cccnc34)CC2)CC1 [Compound 53] | 0.6 |
